Source: publication PMC8707461, “In Vitro and In Vivo Inhibition of MATE1 by Tyrosine Kinase Inhibitors” (Pharmaceutics, 2021)

What was measured:
[1] = biological target: T1, MATE1 (Homo sapiens, UniProt Q96FL8); experiment: [14C]TEA uptake in HEK293 cells overexpressing human MATE1; details: human
T1 sequence (Q96FL8 1-570): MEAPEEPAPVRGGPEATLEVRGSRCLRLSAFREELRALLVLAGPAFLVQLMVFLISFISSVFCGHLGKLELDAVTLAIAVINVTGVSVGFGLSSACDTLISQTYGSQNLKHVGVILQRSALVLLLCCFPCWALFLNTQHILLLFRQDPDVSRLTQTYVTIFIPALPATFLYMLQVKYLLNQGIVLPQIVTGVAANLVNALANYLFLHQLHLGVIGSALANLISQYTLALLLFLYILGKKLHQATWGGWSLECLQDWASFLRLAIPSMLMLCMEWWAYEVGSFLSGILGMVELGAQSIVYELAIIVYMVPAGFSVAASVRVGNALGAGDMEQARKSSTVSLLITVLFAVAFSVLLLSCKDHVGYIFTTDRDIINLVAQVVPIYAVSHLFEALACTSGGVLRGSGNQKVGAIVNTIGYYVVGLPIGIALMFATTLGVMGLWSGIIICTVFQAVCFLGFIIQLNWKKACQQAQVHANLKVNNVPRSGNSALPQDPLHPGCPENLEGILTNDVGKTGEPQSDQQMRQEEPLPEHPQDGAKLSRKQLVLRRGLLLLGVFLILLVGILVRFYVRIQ
Protocol: Uptake experiments in HEK293 cells overexpressing mouse (m) and human (h) OCT2 or MATE1 were performed with radiolabeled tetraethylammonium (TEA) as the model substrate, using standard methods in the presence or absence of TKIs. The cell culture and uptake conditions for cells expressing mMATE1 or hMATE1 were described previously. […] Since the inhibitory potential of various xenobiotics against OCT2 and MATE1 is dependent on preincubation with perpetrator drugs, a 15-min preincubation period with the TKIs was employed unless stated otherwise. All results were normalized to uptake values in cells transfected with an empty vector or DMSO-treated groups.
MATE1-overexpressed cells were pre-incubated with transport media containing 30 mM ammonium chloride for 20 min at 37 °C following previously published protocol (pH 7.4 for hMATE1 [17, 18, 19] and pH 8.4 for mMATE1 [20, 21]) to ensure interactions can be evaluated between outward-facing MATE1 and substrate uptake before adding inhibitors. Then, preincubation media was removed and cells were incubated with transport media (NH4Cl free) containing radiolabeled compounds. […] The uptake of TEA and metformin was measured by liquid scintillation counting, as described previously. For uptake studies involving platinum drugs, cells were collected with TrypLE, and the pellets were lysed overnight in 0.2% nitric acid. After sonication, total platinum levels were determined by flameless atomic absorption spectrometry.

[2] = test system: MATE1; details: publicly available information; ref FDA/EMA or supplement refs 1-8; cited from earlier work
[3] = HEK293 cells overexpressing human MATE1, pH 7.4, probe [14C]TEA (tetraethylammonium), 2 µM

Row | SMILES | inhibition at 10 µM [1, 3] [%] | IC50 [2] [µM] | inhibition at 10 µM ([1]; pH 7.4) [%]
1 | CC#CC(=O)N1CCC[C@H]1c1nc(-c2ccc(C(=O)Nc3ccccn3)cc2)c2c(N)nccn12 [Acalabrutinib] | 43.3 |  | 
2 | CCc1cc2c(cc1N1CCC(N3CCOCC3)CC1)C(C)(C)c1[nH]c3cc(C#N)ccc3c1C2=O [Alectinib] | 0 |  | 
3 | Cn1cc(-c2cc3c(N4CCN(c5ncc([C@@](C)(N)c6ccc(F)cc6)cn5)CC4)ncnn3c2)cn1 [Avapritinib] | 78.6 |  | 
4 | CNC(=O)c1ccccc1Sc1ccc2c(/C=C/c3ccccn3)n[nH]c2c1 [Axitinib] | 60.8 |  | 
5 | CCS(=O)(=O)N1CC(CC#N)(n2cc(-c3ncnc4[nH]ccc34)cn2)C1 [Baricitinib] | 55.5 |  | 
6 | COc1cc(N2CCC(N3CCN(C)CC3)CC2)ccc1Nc1ncc(Cl)c(Nc2ccccc2P(C)(C)=O)n1 [Brigatinib] |  |  | 95.9
7 | CNC(=O)c1ccc(-c2cnc3ncc(Cc4ccc5ncccc5c4)n3n2)cc1F [Capmatinib] | 99.7 |  | 
8 | C[C@@H](Oc1cc(-c2cnn(C3CCNCC3)c2)cnc1N)c1c(Cl)ccc(F)c1Cl [Crizotinib] |  | […] | 96.8
9 | CC(C)(C)c1nc(-c2cccc(NS(=O)(=O)c3c(F)cccc3F)c2F)c(-c2ccnc(N)n2)s1 [Dabrafenib] | 72.1 |  | 
10 | COC(=O)N[C@@H](C)CNc1nccc(-c2cn(C(C)C)nc2-c2cc(Cl)cc(NS(C)(=O)=O)c2F)n1 [Encorafenib] | 66.1 |  | 
11 | C#Cc1cccc(Nc2ncnc3cc(OCCOC)c(OCCOC)cc23)c1 [Erlotinib] |  | […] | 87
12 | Cc1cnc(Nc2ccc(OCCN3CCCC3)cc2)nc1Nc1cccc(S(=O)(=O)NC(C)(C)C)c1 [Fedratinib] | 98.6 |  | 
14 | CS(=O)(=O)CCNCc1ccc(-c2ccc3ncnc(Nc4ccc(OCc5cccc(F)c5)c(Cl)c4)c3c2)o1 [Lapatinib] |  | > 10 | 38.7
15 | C[C@H]1Oc2cc(cnc2N)-c2c(nn(C)c2C#N)CN(C)C(=O)c2ccc(F)cc21 [Lorlatinib] | 61.8 |  | 
16 | CO[C@@H]1[C@H](N(C)C(=O)c2ccccc2)C[C@H]2O[C@]1(C)n1c3ccccc3c3c4c(c5c6ccccc6n2c5c31)C(=O)NC4 [Midostaurin] | 50 |  | 
17 | C=CC(=O)Nc1cccc(Oc2nc(Nc3ccc(N4CCN(C)CC4)cc3)nc3ccsc23)c1 [Olmutinib] | 97.7 |  | 
18 | Cc1ccc(Nc2nccc(N(C)c3ccc4c(C)n(C)nc4c3)n2)cc1S(N)(=O)=O [Pazopanib] | 90.2 | < 0.47 | 
19 | FC(F)(F)c1ccc(CNc2ccc(Cc3c[nH]c4ncc(Cl)cc34)cn2)cn1 [Pexidartinib] | 75.6 |  | 
20 | Cc1ccc(C(=O)Nc2ccc(CN3CCN(C)CC3)c(C(F)(F)F)c2)cc1C#Cc1cnc2cccnn12 [Ponatinib] |  | < 10 | 84.9
21 | Cc1cn(-c2cc(NC(=O)c3ccc(C)c(Nc4nccc(-c5cnccn5)n4)c3)cc(C(F)(F)F)c2)cn1 [Radotinib] | 73 |  | 
22 | N#CC[C@H](C1CCCC1)n1cc(-c2ncnc3[nH]ccc23)cn1 [Ruxolitinib] | 63 | < 10 | 
23 | C[C@@H]1CCN(C(=O)CC#N)C[C@@H]1N(C)c1ncnc2[nH]ccc12 [Tofacitinib] | 90.4 | ~10 | 
24 | CC[C@@H]1CN(C(=O)NCC(F)(F)F)C[C@@H]1c1cnc2cnc3[nH]ccc3n12 [Upadacitinib] | 77.2 |  | 
25 | CCCS(=O)(=O)Nc1ccc(F)c(C(=O)c2c[nH]c3ncc(-c4ccc(Cl)cc4)cc23)c1F [Vemurafenib] | 34.1 |  | 
26 | C=CC(=O)N1CCC([C@@H]2CCNc3c(C(N)=O)c(-c4ccc(Oc5ccccc5)cc4)nn32)CC1 [Zanubrutinib] | 94.5 |  | 

Now from value to compound, other results behind:

Row | inhibition at 10 µM [1, 3] [%] | SMILES | IC50 [2] [µM] | inhibition at 10 µM ([1]; pH 7.4) [%]
27 | 89.6 | CN(C)C/C=C/C(=O)Nc1cc2c(Nc3ccc(F)c(Cl)c3)ncnc2cc1O[C@H]1CCOC1 [Afatinib] | < 10 | 
28 | 47.6 | Cn1cnc2c(F)c(Nc3ccc(Br)cc3F)c(C(=O)NOCCO)cc21 [Binimetinib] | > 50 | 
29 | 95.8 | COc1cc2nccc(Oc3ccc(NC(=O)C4(C(=O)Nc5ccc(F)cc5)CC4)cc3)c2cc1OC [Cabozantinib] | < 10 | 
30 | 96.1 | Cc1cc(Nc2ncc(Cl)c(Nc3ccccc3S(=O)(=O)C(C)C)n2)c(OC(C)C)cc1C1CCNCC1 [Ceritinib] |  | 
31 | 83.3 | O=C(c1ccc(F)c(F)c1Nc1ccc(I)cc1F)N1CC(O)([C@@H]2CCCCN2)C1 [Cobimetinib] |  | 
32 | 91.6 | COc1cc2ncnc(Nc3ccc(F)c(Cl)c3)c2cc1NC(=O)/C=C/CN1CCCCC1 [Dacomitinib] |  | 
33 | 99.6 | CN1CCN(c2ccc(C(=O)Nc3n[nH]c4ccc(Cc5cc(F)cc(F)c5)cc34)c(NC3CCOCC3)c2)CC1 [Entrectinib] |  | 
34 | 40.2 | COc1cc(Nc2ncc(F)c(Nc3ccc4c(n3)N(COP(=O)(O)O)C(=O)C(C)(C)O4)n2)cc(OC)c1OC [Fostamatinib] |  | 
35 | 91.8 | COc1cc2ncnc(Nc3ccc(F)c(Cl)c3)c2cc1OCCCN1CCOCC1 [Gefitinib] |  | 
36 | 96.7 | CCc1nc(C(N)=O)c(Nc2ccc(N3CCC(N4CCN(C)CC4)CC3)c(OC)c2)nc1NC1CCOCC1 [Gilteritinib] |  | 
37 | 21.1 | O=C(Nc1cnn2ccc(N3CCC[C@@H]3c3cc(F)ccc3F)nc12)N1CC[C@H](O)C1 [Larotrectinib] |  | 
38 | 87.7 | COc1cc2nccc(Oc3ccc(NC(=O)NC4CC4)c(Cl)c3)c2cc1C(N)=O [Lenvatinib] |  | 
39 | 90.9 | CCOc1cc2ncc(C#N)c(Nc3ccc(OCc4ccccn4)c(Cl)c3)c2cc1NC(=O)/C=C/CN(C)C [Neratinib] |  | 
40 | 95.3 | COC(=O)c1ccc2c(c1)NC(=O)/C2=C(\Nc1ccc(N(C)C(=O)CN2CCN(C)CC2)cc1)c1ccccc1 [Nintedanib] |  | 
41 | 94.1 | C=CC(=O)Nc1cc(Nc2nccc(-c3cn(C)c4ccccc34)n2)c(OC)cc1N(C)CCN(C)C [Osimertinib] |  | 
42 | 80.1 | CCN1C(=O)N(c2c(F)c(OC)cc(OC)c2F)Cc2cnc3[nH]c(CN4CCOCC4)cc3c21 [Pemigatinib] |  | 
43 | 94.5 | CO[C@]1(C(=O)N[C@@H](C)c2ccc(-n3cc(F)cn3)nc2)CC[C@H](c2nc(C)cc(Nc3cc(C)[nH]n3)n2)CC1 [Pralsetinib] |  | 
44 | 51.9 | CCn1c(=O)c(-c2cc(NC(=O)Nc3ccccc3)c(F)cc2Br)cc2cnc(NC)cc21 [Ripretinib] |  | 
45 | 97.4 | COc1ccc(CN2C3CC2CN(c2ccc(-c4cc(OCC(C)(C)O)cn5ncc(C#N)c45)cn2)C3)cn1 [Selpercatinib] | 0.66 | 
46 | 90.3 | COc1cc2nccc(Oc3ccc(NC(=O)Nc4cc(C)on4)c(Cl)c3)c2cc1OC [Tivozanib] |  | 
47 | 96.1 | CC(=O)Nc1cccc(-n2c(=O)n(C3CC3)c(=O)c3c(Nc4ccc(I)cc4F)n(C)c(=O)c(C)c32)c1 [Trametinib] | 0.06 | 
48 | 96.3 | Cc1cc(Nc2ncnc3ccc(NC4=NC(C)(C)CO4)cc23)ccc1Oc1ccn2ncnc2c1 [Tucatinib] |  | 
49 | 99.5 | COc1cc2c(Nc3ccc(Br)cc3F)ncnc2cc1OCC1CCN(C)CC1 [Vandetanib] | < 10 | 
